Measurements: patent publication EP4789680A1, “NOVEL PACE4 INHIBITOR AND USE THEREOF IN ANTI-OSTEOARTHRITIS” (Inflamax Pharmaceuticals Limited, priority 2023, dated 2025)
Where a SMILES comes first, the peptide text is derived from it.

Experiments:
[1] = tested on: traumatic osteoarthritis model; test: MMT surgery traumatic osteoarthritis model, test for preventive efficacy; type: in vivo, SD rats; conditions: compared to the OA group; intra-articular injection 3 days and 1 day before MMT surgery; 0.1 mg/kg; sacrificed day 7
Description: In this example, a traumatic osteoarthritis model was established by performing a medial meniscus tear (MMT) surgery to verify the preventive effect of the PACE4 inhibitory peptides on OA. In the test for preventive efficacy, the PACE4 inhibitory peptide was administered via intra-articular injection 3 days and 1 day before the modeling surgery (i.e., a total of 2 administrations). In the following examples, the dosage of PACE4 inhibitory peptide was 0.1 mg/kg animal body weight.
Specifically, in the test for preventive efficacy, 24 SD rats were divided into 3 groups (including a control group, an OA modeling group (surgery group), and an OA modeling + preventive administration group (surgery group + drug intervention)), with 8 rats per group. For the OA modeling + preventive administration group, intra-articular injections were administered 3 days and 1 day before MMT surgery. Rats in each group were sacrificed on day 7 after modeling, and joint tissues were collected. Each PACE4 inhibitory peptide was tested individually to determine the preventive effect of each PACE4 inhibitory peptide. Among them, the polypeptide Ac-R-F-K-R-NH2 (control molecule) was selected as a control example. […]

[2] = tested on: traumatic osteoarthritis model; test: MMT surgery traumatic osteoarthritis model, test for therapeutic efficacy; type: in vivo, Sprague Dawley (SD) rats; conditions: compared to the OA group; intra-articular injection on day 3 and day 10 after MMT surgery; sacrificed day 14
Description: In this example, a traumatic osteoarthritis model was established by performing a medial meniscus tear (MMT) surgery to verify the therapeutic effect of the PACE4 inhibitory peptides on OA. In the test for therapeutic efficacy, the injections were administered on day 3 and day 10 after the surgical modeling (i.e., a total of 2 administrations).
Specifically, in the test for therapeutic efficacy, 24 Sprague Dawley (SD) rats were divided into 3 groups (including a control group, an OA modeling group (surgery group), and an OA modeling + therapeutic administration group (surgery group + drug intervention)), with 8 rats per group. For the OA modeling + therapeutic administration group, intra-articular injections were administered on day 3 and day 10 after MMT surgery. Rats in each group were sacrificed on day 14 after modeling, and joint tissues were collected. Each PACE4 inhibitory peptide was tested individually to determine the therapeutic effect of each PACE4 inhibitory peptide. Among them, the polypeptide Ac-R-F-K-R-NH2 (control molecule) was selected as a control example.
Cartilage tissue was collected from each group as samples. The collected cartilage tissue samples were decalcified according to conventional procedures in the art, then embedded in paraffin, and sectioned at a thickness of 7 µm. Safranin O-fast green staining was performed, and the cartilage degeneration was assessed using OARSI scoring. In addition, TRAP staining was performed to determine the subchondral bone resorption in rats before and after MMT surgery and during treatment with the PACE4 inhibitory peptide.

For `CC(=O)N[C@@H](CCCNC(=N)N)C(=O)N[C@@H](Cc1ccccc1)C(=O)N[C@@H](CCCCN)C(=O)N[C@@H](CCCNC(=N)N)C(N)=O` [Ac-R-F-K-R-NH2] (Ac-RFKR-NH2), the “OARSI score reduced, preventive test” value [1] was 4% and the “OARSI score reduced, therapeutic test” value [2] was 10%.
